We go through 25 compounds from patent US20090247559A1 (Exelixis, Inc., priority 2007, published 2009).

One test deals with CDC7 (Homo sapiens, UniProt O00311). Briefly: CDC7 inhibition, biochemical chemiluminescence assay (Kinase Glo, IC50 determination). A digest of the protocol: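 CDC7 enzyme preincubated with compound 10 min at ambient temperature, then ATP mix in Tris Base added; reaction 90 min at 24-27 °C. Remaining ATP quantified by Kinase Glo luminescence to give IC50.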
In general terms: In Kinase-Glo more light means more ATP remaining.

The target in test [1] is PIM (PIM-1, PIM-2, and/or PIM-3). Kind of test: PIM-1, PIM-2 and PIM-3 inhibition, biochemical chemiluminescence assays (Kinase Glo, IC50 determination). As to conditions: Table 1 activity class; PIM refers to PIM-1, PIM-2, and/or PIM-3; read-out: PIM IC50 (Activity B).
The target in a further test is CK2 (Homo sapiens, UniProt P68400). Kind of test: CK2 inhibition, biochemical chemiluminescence holoenzyme assay (Kinase Glo, IC50 determination). As to conditions: Table 1 activity class; symbol given only if active; read-out: CK2 IC50 (Activity C). In short, it runs like this:
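Holoenzyme CK2 assay; compounds pre-incubated with substrate and enzyme, then reacted 150 min at 24-27° C. Remaining ATP measured as luminescence with Kinase Glo, and IC50 derived from the signal.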

Setting [2] is: Table 1 activity class, symbol given only if active, read-out: CDC7 IC50 (Activity A).
Setting [3] is: compounds in Table 1, read-out: CDC7 IC50 value.

Read-outs that look alike come from different tables or passages of the source.

CK2, sequence (P68400 whole entry): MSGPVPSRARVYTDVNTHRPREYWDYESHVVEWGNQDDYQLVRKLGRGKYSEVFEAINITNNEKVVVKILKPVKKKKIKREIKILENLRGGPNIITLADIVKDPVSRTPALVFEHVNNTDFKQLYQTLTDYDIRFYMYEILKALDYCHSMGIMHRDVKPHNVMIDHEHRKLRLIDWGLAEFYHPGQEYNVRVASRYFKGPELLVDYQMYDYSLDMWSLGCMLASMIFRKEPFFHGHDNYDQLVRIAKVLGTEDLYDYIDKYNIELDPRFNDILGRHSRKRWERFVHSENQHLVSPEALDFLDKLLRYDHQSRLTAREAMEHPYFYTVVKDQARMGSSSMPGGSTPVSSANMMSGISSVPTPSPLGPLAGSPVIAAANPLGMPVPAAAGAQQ
CK2, sequence (P67870 whole entry partner): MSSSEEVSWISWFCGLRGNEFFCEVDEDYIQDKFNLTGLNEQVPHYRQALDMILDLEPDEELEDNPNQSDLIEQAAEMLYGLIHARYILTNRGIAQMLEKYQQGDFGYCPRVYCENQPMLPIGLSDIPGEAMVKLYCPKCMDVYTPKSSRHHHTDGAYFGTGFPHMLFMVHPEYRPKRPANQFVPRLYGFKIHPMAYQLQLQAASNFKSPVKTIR
CDC7, sequence (O00311 whole entry): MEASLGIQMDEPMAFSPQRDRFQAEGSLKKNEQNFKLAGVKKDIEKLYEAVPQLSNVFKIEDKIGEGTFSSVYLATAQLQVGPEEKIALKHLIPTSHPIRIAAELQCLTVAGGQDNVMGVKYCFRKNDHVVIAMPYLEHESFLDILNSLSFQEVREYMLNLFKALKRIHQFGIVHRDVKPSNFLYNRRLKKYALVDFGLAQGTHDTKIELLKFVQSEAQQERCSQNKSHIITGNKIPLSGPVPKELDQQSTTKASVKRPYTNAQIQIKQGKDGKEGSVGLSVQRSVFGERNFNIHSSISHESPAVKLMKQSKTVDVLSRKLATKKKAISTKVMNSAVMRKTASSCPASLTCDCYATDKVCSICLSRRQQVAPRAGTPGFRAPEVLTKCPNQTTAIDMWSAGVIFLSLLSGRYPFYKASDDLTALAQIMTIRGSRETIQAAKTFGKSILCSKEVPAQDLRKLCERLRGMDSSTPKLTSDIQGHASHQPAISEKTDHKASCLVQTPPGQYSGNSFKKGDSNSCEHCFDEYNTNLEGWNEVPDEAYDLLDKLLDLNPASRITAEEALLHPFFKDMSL
CDC7, sequence (Q9UBU7 whole entry partner): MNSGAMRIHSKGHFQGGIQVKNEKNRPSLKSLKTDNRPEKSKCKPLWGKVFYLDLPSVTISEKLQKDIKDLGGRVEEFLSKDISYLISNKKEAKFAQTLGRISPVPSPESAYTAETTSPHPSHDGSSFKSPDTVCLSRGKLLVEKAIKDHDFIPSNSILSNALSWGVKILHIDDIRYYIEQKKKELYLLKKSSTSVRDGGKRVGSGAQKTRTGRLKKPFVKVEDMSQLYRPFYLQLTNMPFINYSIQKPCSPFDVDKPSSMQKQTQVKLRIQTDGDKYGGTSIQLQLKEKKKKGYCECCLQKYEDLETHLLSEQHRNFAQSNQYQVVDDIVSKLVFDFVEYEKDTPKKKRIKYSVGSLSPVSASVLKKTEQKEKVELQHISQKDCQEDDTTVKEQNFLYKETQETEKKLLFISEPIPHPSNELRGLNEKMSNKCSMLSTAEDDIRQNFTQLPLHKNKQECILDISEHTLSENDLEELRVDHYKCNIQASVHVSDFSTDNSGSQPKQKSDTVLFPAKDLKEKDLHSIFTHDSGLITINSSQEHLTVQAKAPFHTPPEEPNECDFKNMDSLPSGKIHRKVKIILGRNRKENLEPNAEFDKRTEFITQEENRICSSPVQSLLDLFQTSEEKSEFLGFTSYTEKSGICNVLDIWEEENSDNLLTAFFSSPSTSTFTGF

One may read the IC50 as the concentration at which inhibition is half-maximal. For the compound `CN(C)CCNc1cc(-c2nc3c(oc4ccc(Br)cc43)c(=O)[nH]2)c(Cl)cn1` [Compound 283, 8-bromo-2-(5-chloro-2-{[2-(dimethylamino)ethyl]amino}pyridin-4-yl)[1]benzofuro[3,2-d]pyrimidin-4(3H)-one], the IC50 (at CDC7 (setting [2]); in test [1]; at CK2) was < 10 µM throughout.

`O=c1[nH]c(CN2CCC(CO)C2)nc2c1oc1ccc(Br)cc12` (stereo not shown) [Compound 287, 8-bromo-2-{[3-(hydroxymethyl)pyrrolidin-1-yl]methyl}[1]benzofuro[3,2-d]pyrimidin-4(3H)-one]: the IC50 on CDC7 (setting [2]) is < 10 µM; at CDC7 (setting [3]) it was < 0.1 µM; in test [1] it was < 10 µM; on CK2 it was < 10 µM.

In the case of `CN1CCC(c2nc3c(oc4ccc(Br)cc43)c(=O)[nH]2)C1` (stereo not shown) [Compound 289, 8-bromo-2-(1-methylpyrrolidin-3-yl)[1]benzofuro[3,2-d]pyrimidin-4(3H)-one], the IC50 at CDC7 (setting [2]) is < 10 µM; at CDC7 (setting [3]), < 0.1 µM; in test [1], < 10 µM; on CK2, < 10 µM.

Regarding `O=c1[nH]c(C2CCN(Cc3ccncc3)C2)nc2c1oc1ccc(Br)cc12` (stereo not shown) [Compound 290, 8-bromo-2-[1-(pyridin-4-ylmethyl)pyrrolidin-3-yl][1]benzofuro[3,2-d]pyrimidin-4(3H)-one], the IC50 (on CDC7 (setting [2]); in test [1]; at CK2) was < 10 µM each time.

Take `Cc1ccc(C(=O)Nc2ccc(-c3nc4c(oc5ccc(Br)cc54)c(=O)[nH]3)c(Cl)c2)cn1` [Compound 291, N-[4-(8-bromo-4-oxo-3,4-dihydro[1]benzofuro[3,2-d]pyrimidin-2-yl)-3-chlorophenyl]-6-methylpyridine-3-carboxamide]: the half-maximal inhibitory concentration (IC50) (at CDC7 (setting [2]); in test [1]; on CK2) was < 10 µM each time.

On to `O=C(Nc1ccc(-c2nc3c(oc4ccc(Br)cc43)c(=O)[nH]2)c(Cl)c1)c1ccccn1` [Compound 293, N-[4-(8-bromo-4-oxo-3,4-dihydro[1]benzofuro[3,2-d]pyrimidin-2-yl)-3-chlorophenyl]pyridine-2-carboxamide], for which the IC50 (at CDC7 (setting [2]); in test [1]; on CK2) was < 10 µM in each case.

For `O=C(Nc1ccc(-c2nc3c(oc4ccc(Br)cc43)c(=O)[nH]2)c(Cl)c1)c1cc(Cl)nc(Cl)c1` [Compound 294, N-[4-(8-bromo-4-oxo-3,4-dihydro[1]benzofuro[3,2-d]pyrimidin-2-yl)-3-chlorophenyl]-2,6-dichloropyridine-4-carboxamide], the 50% inhibitory concentration (IC50) (at CDC7 (setting [2]); in test [1]; on CK2) was < 10 µM throughout.

Take `NCc1cccc(-c2nc3c(oc4ccc(Br)cc43)c(=O)[nH]2)c1` [Compound 302, 2-[3-(Aminomethyl)phenyl]-8-bromo[1]benzofuro[3,2-d]pyrimidin-4(3H)-one]: the concentration for half-maximal inhibition (IC50) (at CDC7 (setting [2]); in test [1]; on CK2) was < 10 µM in each case.

Take `O=c1[nH]c(C[C@@H]2CCCNC2)nc2c1oc1ccc(Br)cc12` [Compound 305, 8-bromo-2-[(3S)-piperidin-3-ylmethyl][1]benzofuro[3,2-d]pyrimidin-4(3H)-one]: the IC50 (on CDC7 (setting [2]); in test [1]; at CK2) was < 10 µM in each case.

As to `O=c1[nH]c(CN2CC[C@@H](F)C2)nc2c1oc1ccc(Br)cc12` [Compound 307, 8-bromo-2-{[(3R)-3-fluoropyrrolidin-1-yl]methyl}[1]benzofuro[3,2-d]pyrimidin-4(3H)-one], the IC50 was < 10 µM on CDC7 (setting [2]), < 0.1 µM at CDC7 (setting [3]), < 10 µM in test [1] and < 10 µM on CK2.

With `O=c1[nH]c(CN2CC[C@H](F)C2)nc2c1oc1ccc(Br)cc12` [Compound 308, 8-bromo-2-{[(3S)-3-fluoropyrrolidin-1-yl]methyl}[1]benzofuro[3,2-d]pyrimidin-4(3H)-one], the IC50 is < 10 µM on CDC7 (setting [2]), < 0.1 µM on CDC7 (setting [3]), < 10 µM in test [1] and < 10 µM at CK2.

With `O=c1[nH]c(CN2CCC3(CCNCC3)CC2)nc2c1oc1ccc(Br)cc12` [Compound 311, 8-bromo-2-(3,9-diazaspiro[5.5]undec-3-ylmethyl)[1]benzofuro[3,2-d]pyrimidin-4(3H)-one], the IC50 (on CDC7 (setting [2]); in test [1]; at CK2) was < 10 µM in each case.

In the case of `Cc1cnc(C(=O)Nc2ccc(-c3nc4c(oc5ccc(Br)cc54)c(=O)[nH]3)c(Cl)c2)cn1` [Compound 312, N-[4-(8-bromo-4-oxo-3,4-dihydro[1]benzofuro[3,2-d]pyrimidin-2-yl)-3-chlorophenyl]-5-methylpyrazine-2-carboxamide], the 50% inhibitory concentration (IC50) (at CDC7 (setting [2]); in test [1]; at CK2) was < 10 µM throughout.

Take `O=C(Nc1ccc(-c2nc3c(oc4ccc(Br)cc43)c(=O)[nH]2)c(Cl)c1)C1CCOC1` (stereo not shown) [Compound 313, N-[4-(8-bromo-4-oxo-3,4-dihydro[1]benzofuro[3,2-d]pyrimidin-2-yl)-3-chlorophenyl]tetrahydrofuran-3-carboxamide]: the IC50 (at CDC7 (setting [2]); in test [1]; on CK2) was < 10 µM each time.

Turning to `O=c1[nH]c(C[C@H]2CCCNC2)nc2c1oc1ccc(Br)cc12` [Compound 315, 8-bromo-2-[(3R)-piperidin-3-ylmethyl][1]benzofuro[3,2-d]pyrimidin-4(3H)-one], the IC50 (on CDC7 (setting [2]); in test [1]; on CK2) was < 10 µM in each case.

With `O=c1[nH]c(CN2CCCC(F)C2)nc2c1oc1ccc(Br)cc12` (stereo not shown) [Compound 317, 8-bromo-2-[(3-fluoropiperidin-1-yl)methyl][1]benzofuro[3,2-d]pyrimidin-4(3H)-one], the IC50 on CDC7 (setting [2]) is < 10 µM; at CDC7 (setting [3]), < 0.1 µM; in test [1], < 10 µM; at CK2 it was < 10 µM.

On to `COCC(=O)Nc1ccc(-c2nc3c(oc4ccc(Br)cc43)c(=O)[nH]2)c(Cl)c1` [Compound 319, N-[4-(8-bromo-4-oxo-3,4-dihydro[1]benzofuro[3,2-d]pyrimidin-2-yl)-3-chlorophenyl]-2-(methyloxy)acetamide], for which the IC50 (at CDC7 (setting [2]); in test [1]; on CK2) was < 10 µM in each case.

In the case of `COC(=O)Nc1ccc(-c2nc3c(oc4ccc(Br)cc43)c(=O)[nH]2)c(Cl)c1` [Compound 320, methyl [4-(8-bromo-4-oxo-3,4-dihydro[1]benzofuro[3,2-d]pyrimidin-2-yl)-3-chlorophenyl]carbamate], the IC50 (at CDC7 (setting [2]); in test [1]; on CK2) was < 10 µM each time.

Take `O=C(Nc1ccc(-c2nc3c(oc4ccc(Br)cc43)c(=O)[nH]2)c(Cl)c1)c1ccco1` [Compound 321, N-[4-(8-bromo-4-oxo-3,4-dihydro[1]benzofuro[3,2-d]pyrimidin-2-yl)-3-chlorophenyl]furan-2-carboxamide]: the IC50 (at CDC7 (setting [2]); in test [1]; at CK2) was < 10 µM throughout.

Consider `O=C(Cc1cccnc1)Nc1ccc(-c2nc3c(oc4ccc(Br)cc43)c(=O)[nH]2)c(Cl)c1` [Compound 322, N-[4-(8-bromo-4-oxo-3,4-dihydro[1]benzofuro[3,2-d]pyrimidin-2-yl)-3-chlorophenyl]-2-pyridin-3-ylacetamide], for which the IC50 (at CDC7 (setting [2]); in test [1]; at CK2) was < 10 µM each time.

For the compound `O=C(Nc1ccc(-c2nc3c(oc4ccc(Br)cc43)c(=O)[nH]2)c(Cl)c1)c1cnccn1` [Compound 323, N-[4-(8-bromo-4-oxo-3,4-dihydro[1]benzofuro[3,2-d]pyrimidin-2-yl)-3-chlorophenyl]pyrazine-2-carboxamide], the IC50 (on CDC7 (setting [2]); in test [1]; on CK2) was < 10 µM each time.

Turning to `O=C(Nc1ccc(-c2nc3c(oc4ccc(Br)cc43)c(=O)[nH]2)c(Cl)c1)c1ccno1` [Compound 324, N-[4-(8-bromo-4-oxo-3,4-dihydro[1]benzofuro[3,2-d]pyrimidin-2-yl)-3-chlorophenyl]isoxazole-5-carboxamide], the IC50 (on CDC7 (setting [2]); in test [1]; on CK2) was < 10 µM in each case.

`O=C(Nc1ccc(-c2nc3c(oc4ccc(Br)cc43)c(=O)[nH]2)c(Cl)c1)c1cncnc1` [Compound 328, N-[4-(8-bromo-4-oxo-3,4-dihydro[1]benzofuro[3,2-d]pyrimidin-2-yl)-3-chlorophenyl]pyrimidine-5-carboxamide]: the IC50 (at CDC7 (setting [2]); in test [1]; on CK2) was < 10 µM in each case.

On to `O=c1[nH]c(CN2CC=CC2)nc2c1oc1ccc(Br)cc12` [Compound 331, 8-bromo-2-(3-pyrrolin-1-ylmethyl)[1]benzofuro[3,2-d]pyrimidin-4(3H)-one], for which the IC50 on CDC7 (setting [2]) was < 10 µM; at CDC7 (setting [3]), < 0.1 µM; in test [1], < 10 µM; at CK2, < 10 µM.

Turning to `O=c1[nH]c(CN2C[C@H](O)[C@@H](O)C2)nc2c1oc1ccc(Br)cc12` [Compound 333, 8-bromo-2-(((3 S,4S)-3,4-dihydroxypyrrolidin-1-yl)methyl)benzofuro[3,2-d]pyrimidin-4(3H)-one], the IC50 is < 10 µM on CDC7 (setting [2]), < 0.1 µM on CDC7 (setting [3]), < 10 µM in test [1] and < 10 µM at CK2.
